# Experimental data published in US8420574B2, “Plant growth enhancement with combinations of PESA and herbicides” (Valent BioSciences Corporation, priority 2009, dated 2013).
# Legend:
# Type in all cases: in vivo
# [1] = tested on: rice cv. Nipponbare; test: Hydroponic assay; total root length and shoot length; conditions: for Shoot Length / Total Root Length: 0 ppm PESA salt
# Protocol: Where hydroponically-grown rice was used in studies, the seeds were pre-incubated in water at 30 C for 2 days to stimulate germination. Three seeds were placed on a float and cultivated hydroponically in a test tube (25 mm×200 mm), which contained 50 ml of Kimura B nutrient solution at ⅛th strength supplemented with herbicides and PESA sodium salt. The exposure of the roots to the light was prevented by wrapping the tubes with aluminum foil. The rice seedlings were incubated in a growth cabinet at 25 C under continuous light for 14 days, and the total root length and shoot length were measured. Total root length (cm) was the root length/plant determined following scanning with WinRhizo software (Regent Instruments INC, Toronto, Canada).
# [2] = tested on: rice cv. Cheniere; test: Pouch assay, PESA salt and herbicide added to the pouch solution; root and shoot length
# Protocol: Alternatively, PESA salt and herbicides may be added separately to the sterile water in the growth pouch.
# (§1) Seeds were placed in germination pouches consisting of germination paper hydrated with sterile water that was an insert in a gas-permeable 16×14 cm plastic pouch (CYG Pouch; Mega International, St. Paul, Minn.). In these examples, in pouch solution evaluation, PESA sodium salt or other active ingredients were added to the sterile water in the pouch. The pouches were arranged in a completely randomized block design in growth racks and placed in 19-liter polycarbonate food storage containers (Rubbermaid Commercial Products, Winchester, Va.). The sealed containers were held in an upright growth cabinet maintained at 25 C with a 12 hour light: 12 hour dark photoperiod. After 6 days, the containers were removed from the growth cabinet, and the lengths of the roots and shoot were measured.
# [3] = tested on: rice cv. Cheniere; test: Emergence of seed-treated rice seeded onto soil previously treated with herbicide; conditions: no seed treatment (Control), untreated 90
# Description: Seed was sieved with a screen of mesh size appropriate to remove broken seeds and small trash. Cracked or otherwise damaged seeds were removed. The seed was well mixed, and 50 g samples were weighed into small plastic trays. […] A fungicide (Maxim XL; Syngenta Agricultural Products, Greensboro, N.C.), a polymeric binder (CF-Clear; Becker-Underwood, Ames, Iowa), and a colorant (Color Coat Red; Becker-Underwood, Ames, Iowa) were also included in the slurry at label rates. A small aliquot of this slurry was applied to the seed using the Hege 11 coater (Wintersteiger, Salt Lake City, Utah) with a six-inch bowl at a slurry rate of 30 ounces per 100 lbs of seed. The slurry was deposited drop-wise on the spinning disk atomizer using a syringe.
# Rice cv. […] It was then seeded onto soil which was previously sprayed with the pendimethalin herbicide Prowl H2O® (BASF Agricultural Products, Research Triangle Park, N.C.).
# After seed treatment, rice was seeded into soil previously treated with the dithiopyr herbicide Dimension®.
# Rice seed treated with PESA was tested for its ability to protect rice from the herbicide Roundup WeatherMax® (glyphosate). After seed treatment, rice was seeded into soil previously treated with the Roundup WeatherMax®.
# [4] = tested on: cotton; test: Pouch assay; root and shoot length of cotton; conditions: 0 ppm PESA salt; for Shoot Length: untreated 4.7; for Root Length: untreated 7.7
# Protocol: as §1
# [5] = 10 ppm dithiopyr, treatment none (Control), 30 ppm PESA salt, 10 ppm GA3 or both, untreated 3.9
# [6] = 10 ppm dithiopyr, treatment none (Control), 30 ppm PESA salt, 10 ppm GA3 or both, untreated 9.5
# [7] = 50 ppm pendimethalin, treatment none (Control), 30 ppm PESA salt, 10 ppm GA3 or both, untreated 3.9
# [8] = 50 ppm pendimethalin, treatment none (Control), 30 ppm PESA salt, 10 ppm GA3 or both, untreated 9.7
# [9] = pendimethalin (Table 4, 50 ppm)
compound,measurement,setting,value
"COc1c(Cl)ccc(Cl)c1C(=O)O [Dicamba, dicamba, reference compound]",Shoot Length,"[1]; 0.01 ppm dicamba, untreated 11.4",10.6 cm
same,Total Root Length,"[1]; 0.01 ppm dicamba, untreated 44.9",21.3 cm
same,root length reduced by,[1]; 0.1 ppm dicamba,87%
same,shoot length reduced by,[1]; 0.1 ppm dicamba,61%
same,Shoot Length,"[1]; 0.1 ppm dicamba, untreated 11.4",4.5 cm
same,Total Root Length,"[1]; 0.1 ppm dicamba, untreated 44.9",6.0 cm
same,Shoot Length,"[1]; 1 ppm dicamba, untreated 11.4",3.8 cm
same,Total Root Length,"[1]; 1 ppm dicamba, untreated 44.9",0.0 cm
"CSC(=O)c1c(C(F)F)nc(C(F)(F)F)c(C(=O)SC)c1CC(C)C [Dithiopyr, dithiopyr, reference compound]",Shoot Length,"[2]; 1 ppm dithiopyr, 0 ppm PESA salt, untreated 4.0",4.3 cm
same,Root Length,"[2]; 1 ppm dithiopyr, 0 ppm PESA salt, untreated 9.5",10.0 cm
same,root length reduced by,[2]; 10 ppm dithiopyr,30%
same,Shoot Length,"[2]; 10 ppm dithiopyr, 0 ppm PESA salt, untreated 4.0",3.5 cm
same,Root Length,"[2]; 10 ppm dithiopyr, 0 ppm PESA salt, untreated 9.5",6.7 cm
same,Shoot Length,[2]; [5],3.0 cm
same,Root Length,[2]; [6],4.1 cm
same,Shoot Length,"[2]; 100 ppm dithiopyr, 0 ppm PESA salt, untreated 4.0",1.2 cm
same,Root Length,"[2]; 100 ppm dithiopyr, 0 ppm PESA salt, untreated 9.5",0.4 cm
"CCC(CC)Nc1c([N+](=O)[O-])cc(C)c(C)c1[N+](=O)[O-] [Pendimethalin, pendimethalin, reference compound]",Shoot Length,"[2]; 10 ppm pendimethalin, 0 ppm PESA salt, untreated 3.4",3.4 cm
same,Root Length,"[2]; 10 ppm pendimethalin, 0 ppm PESA salt, untreated 8.5",8.3 cm
same,Shoot Length,[2]; [7],1.3 cm
same,Root Length,[2]; [8],2.9 cm
same,root length reduced by,[2]; 100 ppm pendimethalin,70%
same,Shoot Length,"[2]; 100 ppm pendimethalin, 0 ppm PESA salt, untreated 3.4",1.0 cm
same,Root Length,"[2]; 100 ppm pendimethalin, 0 ppm PESA salt, untreated 8.5",2.5 cm
same,Shoot Length,"[2]; 500 ppm pendimethalin, 0 ppm PESA salt, untreated 3.4",0.5 cm
same,Root Length,"[2]; 500 ppm pendimethalin, 0 ppm PESA salt, untreated 8.5",0.5 cm
same,root length decreased by,[2]; [9],75%
same,shoot length decreased by,[2]; [9],67%
"O=C(O)CNCP(=O)(O)O [Glyphosate, glyphosate, reference compound]",Percent Emergence at 9 days after planting,[3]; glyphosate 23 μg/cm2 (Roundup),72%
same,Percent Emergence at 9 days after planting,[3]; glyphosate 90 μg/cm2 (Roundup),12%
"C=C1C[C@]23C[C@@]1(O)CC[C@H]2[C@@]12C=C[C@H](O)[C@@](C)(C(=O)O1)[C@H]2[C@@H]3C(=O)O [GA3, gibberellic acid, reference compound]",Shoot Length,"[2]; 0 ppm pendimethalin, treatment 30 ppm PESA salt, 10 ppm GA3 or both, untreated 3.9",7.7 cm
same,Root Length,"[2]; 0 ppm pendimethalin, treatment 30 ppm PESA salt, 10 ppm GA3 or both, untreated 9.7",10.8 cm
same,Shoot Length,[2]; [5],5.6 cm
same,Root Length,[2]; [6],4.7 cm
same,Shoot Length,[2]; [7],1.5 cm
same,Root Length,[2]; [8],2.7 cm
same,protection of roots and shoots from pendimethalin,[2]; in the growth medium with pendimethalin (Table 4),only marginally effective at protecting the roots and shoots from pendimethalin
same,Shoot Length,"[2]; no dithiopyr (Control), treatment 30 ppm PESA salt, 10 ppm GA3 or both, untreated 3.9",7.0 cm
same,Root Length,"[2]; no dithiopyr (Control), treatment 30 ppm PESA salt, 10 ppm GA3 or both, untreated 9.5",10.7 cm
"C#CCOC(=O)[C@@H](C)Oc1ccc(Oc2ncc(Cl)cc2F)cc1 [Clodinafop-propargyl, clodinafop-propargyl, reference compound]",Shoot Length,"[1]; 0.3 ppm clodinafop-propargyl, untreated 10.6",10.2 cm
same,Total Root Length,"[1]; 0.3 ppm clodinafop-propargyl, untreated 52.1",45.3 cm
same,Shoot Length,"[1]; 1 ppm clodinafop-propargyl, untreated 10.6",10.9 cm
same,Total Root Length,"[1]; 1 ppm clodinafop-propargyl, untreated 52.1",11.5 cm
same,root length reduced by,[1]; 3 ppm clodinafop-propargyl,91%
same,Shoot Length,"[1]; 3 ppm clodinafop-propargyl, untreated 10.6",7.5 cm
same,Total Root Length,"[1]; 3 ppm clodinafop-propargyl, untreated 52.1",4.7 cm
"COc1nc(C)nc(NC(=O)NS(=O)(=O)c2ccccc2Cl)n1 [Chlorsulfuron, chlorsulfuron, reference compound]",Shoot Length,"[2]; 10 ppm chlorsulfuron, 0 ppm PESA salt, untreated 4.8",0.9 cm
same,Root Length,"[2]; 10 ppm chlorsulfuron, 0 ppm PESA salt, untreated 11.6",0.6 cm
same,Shoot Length,"[2]; 100 ppm chlorsulfuron, 0 ppm PESA salt, untreated 4.8",0.7 cm
same,Root Length,"[2]; 100 ppm chlorsulfuron, 0 ppm PESA salt, untreated 11.6",0.3 cm
same,Shoot Length,[4]; 1 ppm chlorsulfuron,2.3 cm
same,Root Length,[4]; 1 ppm chlorsulfuron,2.1 cm
same,Shoot Length,[4]; 10 ppm chlorsulfuron,1.5 cm
same,Root Length,[4]; 10 ppm chlorsulfuron,1.8 cm
same,Shoot Length,[4]; 100 ppm chlorsulfuron,1.7 cm
same,Root Length,[4]; 100 ppm chlorsulfuron,1.9 cm
"C#CCN1C(=O)COc2cc(F)c(N3C(=O)C4=C(CCCC4)C3=O)cc21 [Flumioxazin, flumioxazin, reference compound]",Shoot Length,"[1]; 0.1 ppm flumioxazin, untreated 10.6",10.7 cm
same,Total Root Length,"[1]; 0.1 ppm flumioxazin, untreated 52.1",41.5 cm
same,Shoot Length,"[1]; 0.3 ppm flumioxazin, untreated 10.6",11.0 cm
same,Total Root Length,"[1]; 0.3 ppm flumioxazin, untreated 52.1",64.1 cm
same,root length reduced by,[1]; 1 ppm flumioxazin,28%
same,shoot length reduced by,[1]; 1 ppm flumioxazin,64%
same,Shoot Length,"[1]; 1 ppm flumioxazin, untreated 10.6",3.8 cm
same,Total Root Length,"[1]; 1 ppm flumioxazin, untreated 52.1",14.5 cm
same,Shoot Length,"[1]; 3 ppm flumioxazin, untreated 10.6",5.9 cm
same,Total Root Length,"[1]; 3 ppm flumioxazin, untreated 52.1",15.7 cm
"CCc1cccc(C)c1N(C(=O)CCl)C(C)COC (stereo not drawn) [Metolachlor, metolachlor, reference compound]",Shoot Length,"[2]; 1 ppm metolachlor, 0 ppm PESA salt, untreated 3.7",3.6 cm
same,Root Length,"[2]; 1 ppm metolachlor, 0 ppm PESA salt, untreated 9.3",8.2 cm
same,decrease in root length,[2]; 10 ppm metolachlor,60%
same,Shoot Length,"[2]; 10 ppm metolachlor, 0 ppm PESA salt, untreated 3.7",0.9 cm
same,Root Length,"[2]; 10 ppm metolachlor, 0 ppm PESA salt, untreated 9.3",3.7 cm
same,Shoot Length,"[2]; 100 ppm metolachlor, 0 ppm PESA salt, untreated 3.7",0.6 cm
same,Root Length,"[2]; 100 ppm metolachlor, 0 ppm PESA salt, untreated 9.3",1.6 cm
"COc1cc(OC)nc(NC(=O)NS(=O)(=O)c2c(Cl)nc3ccccn23)n1 [Imazosulfuron, imazosulfuron, reference compound]",Shoot Length,"[1]; 0.01 ppm imazosulfuron, untreated 11.4",12.6 cm
same,Total Root Length,"[1]; 0.01 ppm imazosulfuron, untreated 44.9",41.4 cm
same,root length reduced by,[1]; 0.1 ppm imazosulfuron,49%
same,Shoot Length,"[1]; 0.1 ppm imazosulfuron, untreated 11.4",8.6 cm
same,Total Root Length,"[1]; 0.1 ppm imazosulfuron, untreated 44.9",23.1 cm
same,shoot length reduced by,[1]; 1 ppm imazosulfuron,86%
same,Shoot Length,"[1]; 1 ppm imazosulfuron, untreated 11.4",1.6 cm
same,Total Root Length,"[1]; 1 ppm imazosulfuron, untreated 44.9",4.9 cm
